Results on 1 molecule are retold here after US9241921B2, “Photosensitizer composition for treating skin disorders” (priority 2011, dated 2016).

This assay deals with acne vulgaris. Description: Open-label prospective human study of topical ALA-PDT in acne vulgaris. The class given is in vivo. The note with it: after treatment, amelioration of acne (FIG. 5). As for the experimental part:
Photodynamic therapy with topical ALA composition as described in Example 1 was tested for the treatment of acne vulgaris, in an open-label prospective human study. 22 subjects with acne on their back were treated at 4 different sites with one of the following at each site: ALA plus red light (ALA-PDT), ALA alone, light alone, and untreated control. Half of the subjects were treated once; half were treated 4 times. 20% topical ALA of Example 1 was applied with 3 hr occlusion, and 150 J/cm^2 broad band light ([…]) was applied to the treated site. Sebum excretion rate and auto-fluorescence from follicular bacteria were measured before, and at 2, 3, 10, and 20 weeks after treatment. […]
Subjects were randomly divided into single treatment group or multiple treatment group. At baseline, clinical evaluations, natural bacterial porphyrin fluorescence photography, and sebum excretion rate (SER) evaluation were performed. […] In both groups, subjects returned one week after treatments for clinical evaluations and at weeks 2, 3, 10 and 20 for clinical, fluorescence, and SER evaluations.
Each subject's acne was visually assessed using an inflammatory acne score modified from that previously described (Burke et al., 1994). […] The numbers of comedo, inflammatory comedo, papules, pustules, nodules and cysts in each test area were recorded. […]

In the case of `O=C(OOC(=O)c1ccccc1)c1ccccc1` [Benzoyl Peroxide], the “time until therapeutic effect occurred” value was “eight to twelve”.
